# In PubChem BioAssay AID1918948 (Molecular Pharmacology Branch, DTP, NCI, 2023):
# Tested on: K-562 leukemia growth, % test/control
# Assay: Anticancer human tumor K-562 cell line growth inhibition;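 as to viability, T/C: 100% = DMSO vehicle wells and lower values mean fewer viable cells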
# Settings: spheroids with HUVEC and MSC; for IC50: curve of first compound; for viability, T/C: stronger effect = lower value
# Method in brief: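 Complex spheroids of tumor cells with HUVEC and human MSCs, exposed to iadademstat combined with other agents. Each agent tested in half-log steps from near clinical Cmax (else 10 microM top), DMSO ≤0.25%.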
# [1] = second compound 0.1 µM, first compound 0.0316 µM
# [2] = second compound 0.1 µM, first compound 0.1 µM
# [3] = second compound 0.1 µM, first compound 0.316 µM
# [4] = second compound 0.1 µM, first compound 1 µM
# [5] = second compound 0.1 µM, first compound 3.16 µM
# [6] = second compound 0.1 µM, first compound 10 µM
# [7] = second compound 0.316 µM, first compound 0.0316 µM
# [8] = second compound 0.316 µM, first compound 0.1 µM
# [9] = second compound 0.316 µM, first compound 0.316 µM
# [10] = second compound 0.316 µM, first compound 1 µM
# [11] = second compound 0.316 µM, first compound 3.16 µM
# [12] = second compound 0.316 µM, first compound 10 µM
# [13] = second compound 1 µM, first compound 0.0316 µM
# [14] = second compound 1 µM, first compound 0.1 µM
# [15] = second compound 1 µM, first compound 0.316 µM
# [16] = second compound 1 µM, first compound 1 µM
# [17] = second compound 1 µM, first compound 3.16 µM
# [18] = second compound 1 µM, first compound 10 µM
# [19] = second compound 3.16 µM, first compound 0.0316 µM
# [20] = second compound 3.16 µM, first compound 0.1 µM
# [21] = second compound 3.16 µM, first compound 0.316 µM
# [22] = second compound 3.16 µM, first compound 1 µM
# [23] = second compound 3.16 µM, first compound 3.16 µM
# [24] = second compound 3.16 µM, first compound 10 µM
# [25] = second compound 10 µM, first compound 0.0316 µM
# [26] = second compound 10 µM, first compound 0.1 µM
# [27] = second compound 10 µM, first compound 0.316 µM
# [28] = second compound 10 µM, first compound 1 µM
# [29] = second compound 10 µM, first compound 3.16 µM
# [30] = second compound 10 µM, first compound 10 µM
# [31] = second compound 0.1 µM, first compound 0.00316 µM
# [32] = second compound 0.1 µM, first compound 0.01 µM
# [33] = second compound 0.316 µM, first compound 0.00316 µM
# [34] = second compound 0.316 µM, first compound 0.01 µM
# [35] = second compound 1 µM, first compound 0.00316 µM
# [36] = second compound 1 µM, first compound 0.01 µM
# [37] = second compound 3.16 µM, first compound 0.00316 µM
# [38] = second compound 3.16 µM, first compound 0.01 µM
# [39] = second compound 10 µM, first compound 0.00316 µM
# [40] = second compound 10 µM, first compound 0.01 µM
Compound,IC50 (second compound 0.1 µM) [µM],IC50 (second compound 0.316 µM) [µM],IC50 (second compound 1 µM) [µM],IC50 (second compound 3.16 µM) [µM],IC50 (second compound 10 µM) [µM],"viability, T/C [1] [%]","viability, T/C [2] [%]","viability, T/C [3] [%]","viability, T/C [4] [%]","viability, T/C [7] [%]","viability, T/C [8] [%]","viability, T/C [9] [%]","viability, T/C [10] [%]","viability, T/C [13] [%]","viability, T/C [14] [%]","viability, T/C [15] [%]","viability, T/C [16] [%]","viability, T/C [19] [%]","viability, T/C [20] [%]","viability, T/C [21] [%]",also measured
CC(C)c1c(-c2ccccc2)nc2c(C#N)c[nH]n2c1=O + NC1CC1c1ccc(-c2cccc(O)c2)cc1,> 10,> 10,> 10,> 10,> 10,105,108,102,107,102,103,102,105,97.8,103,95.5,101,102,97.7,100,"viability, T/C [5]: 111%; viability, T/C [6]: 106%; viability, T/C [11]: 106%; viability, T/C [12]: 98.9%; viability, T/C [17]: 99.4%; viability, T/C [18]: 96.4%; viability, T/C [22]: 97.2%; viability, T/C [23]: 99.2%; viability, T/C [24]: 95.9%; viability, T/C [25]: 99.4%; viability, T/C [26]: 96.1%; viability, T/C [27]: 96.5%; viability, T/C [28]: 98.3%; viability, T/C [29]: 98.3%; viability, T/C [30]: 92%"
CC1COCCN1c1cc(-c2ccnn2C)c2ccnc(-c3ccn[nH]3)c2n1 (stereo not given) + NC1CC1c1ccc(-c2cccc(O)c2)cc1,< 0.00316,< 0.00316,< 0.00316,< 0.00316,< 0.00316,2.71,1.86,2.44,2.27,2.23,1.78,1.8,1.5,2.17,1.57,1.71,1.4,2.11,1.71,1.83,"viability, T/C [31]: 28.6%; viability, T/C [32]: 16.1%; viability, T/C [33]: 24.4%; viability, T/C [34]: 10.3%; viability, T/C [35]: 16.4%; viability, T/C [36]: 7.71%; viability, T/C [37]: 10.6%; viability, T/C [38]: 5.99%; viability, T/C [22]: 1.4%; viability, T/C [39]: 6.46%; viability, T/C [40]: 4.59%; viability, T/C [25]: 2.33%; viability, T/C [26]: 1.51%; viability, T/C [27]: 1.64%; viability, T/C [28]: 1.74%"
COc1ccc([C@@H](O)c2cc(-c3ncnc4cc(N5CCOCC5)ccc34)c(F)cc2Cl)nn1 + NC1CC1c1ccc(-c2cccc(O)c2)cc1,7.9,7.53,6.49,4.84,1.16,111,107,106,106,104,107,101,98.6,99.1,98.8,99.5,98.3,103,99.6,94.2,"viability, T/C [5]: 93.1%; viability, T/C [6]: 38.8%; viability, T/C [11]: 85.4%; viability, T/C [12]: 38.2%; viability, T/C [17]: 77%; viability, T/C [18]: 33.8%; viability, T/C [22]: 83.5%; viability, T/C [23]: 59.7%; viability, T/C [24]: 32.7%; viability, T/C [25]: 96.6%; viability, T/C [26]: 96.9%; viability, T/C [27]: 66.7%; viability, T/C [28]: 52.9%; viability, T/C [29]: 38.9%; viability, T/C [30]: 24.6%"
O=C(C=Cn1cnc(-c2cc(C(F)(F)F)cc(C(F)(F)F)c2)n1)NNc1cnccn1 + NC1CC1c1ccc(-c2cccc(O)c2)cc1,0.115,0.0765,0.0676,0.0667,0.0502,93.5,56.2,9.94,1.19,83.1,40.1,9.06,1.23,80.7,34,8.67,1.78,73.4,37.6,8.04,"viability, T/C [31]: 106%; viability, T/C [32]: 103%; viability, T/C [33]: 106%; viability, T/C [34]: 103%; viability, T/C [35]: 102%; viability, T/C [36]: 96.4%; viability, T/C [37]: 97%; viability, T/C [38]: 94.9%; viability, T/C [22]: 1.27%; viability, T/C [39]: 91.4%; viability, T/C [40]: 91.3%; viability, T/C [25]: 59.8%; viability, T/C [26]: 32.7%; viability, T/C [27]: 6.57%; viability, T/C [28]: 2.98%"
Nc1ncn(C2CC(O)C(CO)O2)c(=O)n1 (stereo not given) + NC1CCC(NC2CC2c2ccccc2)CC1,0.695,0.77,0.64,0.396,0.0695,89.2,71.4,54.7,47.8,90.3,71,56.4,48,89.4,72.4,56.3,46.1,88.1,68.4,50.8,"viability, T/C [31]: 102%; viability, T/C [32]: 98.2%; viability, T/C [33]: 104%; viability, T/C [34]: 100%; viability, T/C [35]: 103%; viability, T/C [36]: 100%; viability, T/C [37]: 102%; viability, T/C [38]: 99.5%; viability, T/C [22]: 45%; viability, T/C [39]: 89.3%; viability, T/C [40]: 84.5%; viability, T/C [25]: 64.2%; viability, T/C [26]: 45%; viability, T/C [27]: 25.6%; viability, T/C [28]: 24.9%"
